Measurements: patent US7862804B2, “Admistration of C-glycoside compounds for depigmenting/whitening the skin” (Loreal, priority 2005, dated 2011)

Tested on: actinic lentigines
Assay: Double blind clinical study versus placebo; dermatologist's clinical evaluation of actinic lentigines
Assay type: in vivo, human
Experimental: A clinical evaluation of actinic lentigines was carried out by a dermatologist at the beginning and at the end of the study according to a scale with 7 levels, including 4 main levels: • 0—absent; • 1—few blemishes; • 2—many blemishes; • 3—a great many blemishes; and 3 intermediate levels (0.5; 1.5; 2.5).
The women applied C-β-D-xylopyranoside-2-hydroxypropane at a concentration of 10% by weight with respect to the total weight of the composition in a proportion of 2 mg/cm^2 or the placebo twice daily for 3 months (98 days) to the pre-marked regions.

CC(O)C[C@@H]1OC[C@@H](O)[C@H](O)[C@H]1O (stereo partly drawn) [C-β-D-xylopyranoside-2-hydroxypropane]
mean score of actinic lentigines on the treated side, end of study (scale with 7 levels, 0-3, 10% by weight, 2 mg/cm^2 topical twice daily for 3 months (98 days), p=0.08): 0.93+/−0.68 | mean score of actinic lentigines on the treated side, before treatment (scale with 7 levels, 0 absent to 3 a great many blemishes, 15 women, phototype III, baseline of treated side): 1.07+/−0.62 | subjects exhibiting a lower score on the treated side, end of study (treated side versus placebo side, after 3 months (98 days) of 10% topical twice daily): 54% | subjects exhibiting a lower score on the treated side, at the beginning of the study (treated side versus placebo side, baseline): 13%
